Laboratory results taken from patent publication US8927544B2, “Benzofuran-2-sulfonamides derivatives as chemokine receptor modulators” (Allergan, Inc., priority 2012, dated 2015).
Where two headings read alike, the source gives them in different places.

Biological target: T1, CCR2 (Homo sapiens, UniProt P41597)
T1 construct: expressed in transfected cells
Test: compound-induced calcium activity on the FLIPR Tetra in HEK-Gqi5 cells stably expressing CCR2
Assay type: cell-based
Experimental: HEK-Gqi5 cells stably expressing CCR2 were cultured in DMEM high glucose, 10% FBS, 1% PSA, 400 μg/ml geneticin and 50 μg/ml hygromycin. Appropriate positive control chemokines (MCP-1, MIP1A or RANTES) was used as the positive control agonist for screening compound-induced calcium activity assayed on the FLIPR^Tetra. The drug plates were prepared in 384-well microplates using the EP3 and the MultiPROBE robotic liquid handling systems. Compounds were synthesized and tested for CCR2 activity.

[1] = HEK-Gqi5 cells stably expressing CCR2, calcium activity, FLIPR Tetra
[2] = HEK-Gqi5 cells stably expressing CCR2, calcium activity, FLIPR Tetra, read-out: CCR2 IC50

T1 sequence (P41597 whole entry, species assumed): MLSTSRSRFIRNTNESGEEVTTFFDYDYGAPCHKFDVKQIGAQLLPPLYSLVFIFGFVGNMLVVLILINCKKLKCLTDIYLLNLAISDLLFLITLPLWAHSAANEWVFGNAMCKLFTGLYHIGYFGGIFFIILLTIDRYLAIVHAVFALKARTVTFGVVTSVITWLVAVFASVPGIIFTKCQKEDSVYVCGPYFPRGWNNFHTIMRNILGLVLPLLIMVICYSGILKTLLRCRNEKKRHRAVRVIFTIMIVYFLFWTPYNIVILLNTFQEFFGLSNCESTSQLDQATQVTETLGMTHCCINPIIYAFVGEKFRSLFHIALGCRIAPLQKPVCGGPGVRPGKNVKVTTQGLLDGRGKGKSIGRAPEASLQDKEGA

SMILES | CCR2 ANTAGONISM (%) [1] | IC50 [2] | IC50
COc1ccc(Cl)cc1NS(=O)(=O)c1cc2ccccc2o1 [Compound 1, N-(5-Chloro-2-methoxyphenyl)benzofuran-2-sulfonamide] | 97% | 512 nM | –
Cc1ccc(Cl)cc1NS(=O)(=O)c1cc2ccccc2o1 [Compound 2, N-(5-Chloro-2-methylphenyl)-1-benzofuran-2-sulfonamide] | 84% | 359 nM | –
O=S(=O)(Nc1cc(Cl)ccc1OC(F)(F)F)c1cc2ccccc2o1 [Compound 3, N-[5-Chloro-2-(trifluoromethoxy)phenyl]-1-benzofuran-2-sulfonamide] | 95% | 195 nM | –
COC(=O)c1ccc(Cl)cc1NS(=O)(=O)c1cc2ccccc2o1 [Compound 4, Methyl 2-[(1-benzofuran-2-ylsulfonyl)amino]-4-chlorobenzoate] | 95% | 1380 nM | –
CCOc1ccc(Cl)cc1NS(=O)(=O)c1cc2ccccc2o1 [Compound 5, N-(5-Chloro-2-ethoxyphenyl)-1-benzofuran-2-sulfonamide] | 73% | 1660 nM | –
C#Cc1ccc(Cl)cc1NS(=O)(=O)c1cc2ccccc2o1 [Compound 6, N-(5-Chloro-2-ethynylphenyl)-1-benzofuran-2-sulfonamide] | 93% | 117 nM | –
O=C1CCN(C(=O)c2ccc(Cl)cc2NS(=O)(=O)c2cc3ccccc3o2)CC1 [Compound 7, N-{5-Chloro-2-[(4-oxopiperidin-1-yl)carbonyl]phenyl}-1-benzofuran-2-sulfonamide] | 93% | – | 110 nM
O=C(c1ccc(Cl)cc1NS(=O)(=O)c1cc2ccccc2o1)N1CCOCC1 [Compound 8, N-[5-Chloro-2-(morpholin-4-ylcarbonyl)phenyl]-1-benzofuran-2-sulfonamide] | 84% | 569 nM | –
Cc1ncccc1Oc1ccc(Cl)cc1NS(=O)(=O)c1cc2ccccc2o1 [Compound 9, N-{5-Chloro-2-[(2-methylpyridin-3-yl)oxy]phenyl}-1-benzofuran-2-sulfonamide] | 96% | 365 nM | –
COC(=O)c1ccccc1Oc1ccc(Cl)cc1NS(=O)(=O)c1cc2ccccc2o1 [Compound 10, Methyl 2-{2-[(1-benzofuran-2-ylsulfonyl)amino]-4-chlorophenoxy}benzoate] | 98% | 1020 nM | –
O=C(O)c1ccccc1Oc1ccc(Cl)cc1NS(=O)(=O)c1cc2ccccc2o1 [Compound 11, 2-{2-[(1-Benzofuran-2-ylsulfonyl)amino]-4-chlorophenoxy}benzoic acid] | 97% | 60 nM | –
O=S(=O)(Nc1cc(Cl)ccc1Sc1ccccc1)c1cc2ccccc2o1 [Compound 12, N-[5-Chloro-2-(phenylsulfanyl)phenyl]-1-benzofuran-2-sulfonamide] | 90% | 124 nM | –
O=S(=O)(Nc1cc(Cl)ccc1S(=O)(=O)c1ccccc1)c1cc2ccccc2o1 [Compound 13, N-[5-Chloro-2-(phenylsulfonyl)phenyl]-1-benzofuran-2-sulfonamide] | 78% | 1970 nM | –
O=S(=O)(Nc1cc(Cl)ccc1[S+]([O-])c1ccccc1)c1cc2ccccc2o1 (stereo not drawn) [Compound 14, N-[5-Chloro-2-(phenylsulfinyl)phenyl]-1-benzofuran-2-sulfonamide] | 105% | 6 nM | –
O=C(Nc1ccccc1)c1ccc(Cl)cc1NS(=O)(=O)c1cc2ccccc2o1 [Compound 15, 2-[(1-Benzofuran-2-ylsulfonyl)amino]-4-chloro-N-phenylbenzamide] | 95% | 328 nM | –
N#Cc1ccc(Cl)cc1NS(=O)(=O)c1cc2ccccc2o1 [Compound 16, N-(5-Chloro-2-cyanophenyl)-1-benzofuran-2-sulfonamide] | 102% | 409 nM | –
O=C(Cc1ccccc1)c1ccc(Cl)cc1NS(=O)(=O)c1cc2ccccc2o1 [Compound 17, N-[5-Chloro-2-(phenylacetyl)phenyl]-1-benzofuran-2-sulfonamide] | 79% | 183 nM | –
CO/N=C(/Cc1ccccc1)c1ccc(Cl)cc1NS(=O)(=O)c1cc2ccccc2o1 [Compound 18, N-{5-Chloro-2-[(1Z)—N-methoxy-2-phenylethanimidoyl]phenyl}-1-benzofuran-2-sulfonamide] | 76% | – | –
O=S(=O)(Nc1cc(Cl)ccc1/C(Cc1ccccc1)=N\O)c1cc2ccccc2o1 [Compound 19, N-{5-Chloro-2-[(1Z)—N-hydroxy-2-phenylethanimidoyl]phenyl}-1-benzofuran-2-sulfonamide] | 72% | – | –
O=S(=O)(Nc1cc(Cl)ccc1OCc1ccccc1)c1cc2ccccc2o1 [Compound 20, N-[2-(Benzyloxy)-5-chlorophenyl]-1-benzofuran-2-sulfonamide] | 87% | 1630 nM | –
O=S(=O)(Nc1cc(Cl)ccc1C#Cc1ccccc1)c1cc2ccccc2o1 [Compound 21, N-[5-Chloro-2-(phenylethynyl)phenyl]-1-benzofuran-2-sulfonamide] | 30% | – | –
O=S(=O)(Nc1cc(Cl)ccc1CCc1ccccc1)c1cc2ccccc2o1 [Compound 22, N-[5-Chloro-2-(2-phenylethyl)phenyl]-1-benzofuran-2-sulfonamide] | 84% | – | –
Cc1ccc(Sc2ccccc2)c(NS(=O)(=O)c2cc3ccccc3o2)c1 [Compound 24, N-[5-Methyl-2-(phenylsulfanyl)phenyl]-1-benzofuran-2-sulfonamide] | 41% | – | –
Cc1ccc([S+]([O-])c2ccccc2)c(NS(=O)(=O)c2cc3ccccc3o2)c1 (stereo not drawn) [Compound 25, N-[5-Methyl-2-(phenylsulfinyl)phenyl]-1-benzofuran-2-sulfonamide] | 92% | 2880 nM | –
Cc1ccc(S(=O)(=O)c2ccccc2)c(NS(=O)(=O)c2cc3ccccc3o2)c1 [Compound 26, N-[5-Methyl-2-(phenylsulfonyl)phenyl]-1-benzofuran-2-sulfonamide] | 38% | – | –
O=S(=O)(Nc1cc(F)ccc1Sc1ccccc1)c1cc2ccccc2o1 [Compound 27, N-[5-Fluoro-2-(phenylsulfanyl)phenyl]-1-benzofuran-2-sulfonamide] | 74% | – | –
O=S(=O)(Nc1cc(F)ccc1[S+]([O-])c1ccccc1)c1cc2ccccc2o1 (stereo not drawn) [Compound 28, N-[5-Fluoro-2-(phenylsulfinyl)phenyl]-1-benzofuran-2-sulfonamide] | 91% | 317 nM | –
O=S(=O)(Nc1cc(F)ccc1S(=O)(=O)c1ccccc1)c1cc2ccccc2o1 [Compound 29, N-[5-Fluoro-2-(phenylsulfonyl)phenyl]-1-benzofuran-2-sulfonamide] | 82% | 2620 nM | –
O=C(O)c1ccccc1COc1ccc(Cl)cc1NS(=O)(=O)c1cc2ccccc2o1 [Compound 31, 2-({2-[(1-Benzofuran-2-ylsulfonyl)amino]-4-chlorophenoxy}methyl)benzoic Acid] | 99% | 27 nM | –
